Laboratory results reported in patent publication US11040028B2, “Penicinotam derivative, preparation method and use thereof” (OCEAN UNIVERSITY OF CHINA, priority 2017, dated 2021).

How the values were obtained:
Format in all cases: cell-based
[1] = test system: BHK-21 cells; test: Anti-fibrosis activity test: inhibition of BHK-21 cell proliferation (CCK-8); settings: Mesocricetus auratus, BHK-21, 48 h
Summary of the method: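 BHK-21 cells seeded at 2×10^4 cells/mL, allowed to adhere 24 h at 37° C, 5% CO2, then exposed to compounds at graded concentrations in triplicate for 48 h. CCK-8 added for 2 h and absorbance read at 450 nm; inhibition rate taken as (1−Ai/Ao)×100% and IC50 fitted.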

[2] = test system: human lung fibroblasts HFL1; test: Anti-fibrosis activity test: inhibition of proliferation of human lung fibroblasts HFL1 (CCK-8); settings: Homo sapiens, HFL1, 48 h
Summary of the method: (§1)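 A CCK-8 proliferation assay was run: cells at 2×10^4 cells/mL, adherent for 24 h, then incubated 48 h at 37° C with compound dilutions. A450 was recorded 2 h after CCK-8 addition and converted to percent inhibition versus blank for IC50 determination.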

[3] = test system: human hepatic stellate cells LX-2; test: Anti-fibrosis activity test: inhibition of proliferation of human hepatic stellate cells LX-2 (CCK-8); settings: Homo sapiens, 48 h
Summary of the method: as §1

[4] = test system: human fibrosarcoma cells HT-1080; test: Anti-fibrosis activity test: inhibition of proliferation of human fibrosarcoma cells HT-1080 (CCK-8); settings: Homo sapiens, HT-1080, 48 h
Summary of the method: as §1

[5] = test system: human dermal fibroblasts CCC-ESF-1; test: Anti-fibrosis activity test: inhibition of proliferation of human dermal fibroblasts CCC-ESF-1 (CCK-8); settings: Fibroblast
Summary of the method: as §1

[6] = test system: human embryonic lung fibroblast IMR-90; test: Anti-fibrosis activity test: inhibition of proliferation of human embryonic lung fibroblast IMR-90 (CCK-8)
Summary of the method: as §1

[7] = test system: cardiac fibroblast RAT-iCell-C002; test: Anti-fibrosis activity test: inhibition of proliferation of cardiac fibroblast RAT-iCell-C002 (CCK-8); settings: Cardiac fibroblast, 48 h
Summary of the method: as §1

[8] = test system: mouse macrophages (RAW264.7); test: Lipopolysaccharide-induced NO secretion in macrophages (Griess); settings: Mus musculus, RAW264.7, 24 h, RAW264.7, LPS 1 μg/ml, a/b isomers given as first/second symbol, read-out: IC50 (μM), inhibition of lipopolysaccharide-induced NO secretion in macrophages
Summary of the method: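 Absorbance at 548 nm after Griess reagent addition to culture supernatant gave NO content; inhibition rate was derived relative to blank control. Cells were mouse RAW264.7 macrophages exposed to compounds and 1 μg/ml LPS for 24 hours.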

[9] = CCK-8, 48 hours after administration
[10] = human lung fibroblasts HFL1, CCK-8, 48 hours
[11] = human hepatic stellate cells LX-2, CCK-8, 48 hours
[12] = human fibrosarcoma cells HT-1080, CCK-8, 48 hours
[13] = human dermal fibroblasts CCC-ESF-1, CCK-8, 48 hours
[14] = human embryonic lung fibroblast IMR-90, CCK-8, 48 hours
[15] = cardiac fibroblast RAT-iCell-C002, CCK-8, 48 hours
[16] = Homo sapiens, CCC-ESF-1 cells, 48 h, CCK-8
[17] = Homo sapiens, IMR-90 cells, 48 h, CCK-8

SMILES | IC50 [1, 9] | IC50 [2, 10] | IC50 [3, 11] | IC50 [4, 12] | IC50 [5, 13] | IC50 [6, 14] | IC50 [7, 15] | IC50 [8] | IC50 ([1]; 48 h, CCK-8) | IC50 ([2]; HFL1 cells, 48 h, CCK-8) | IC50 ([3]; LX-2, 48 h, LX-2 cells, CCK-8) | IC50 ([4]; HT-1080 cells, 48 h, CCK-8) | IC50 [5, 16] | IC50 [6, 17] | IC50 ([7]; RAT-iCell-C002 cells, CCK-8)
O=C1c2c([nH]c3cc(Cl)ccc3c2=O)-c2cccn21 [Compound 500a, 6-Chloro-9H-pyrrolizino[1,2-b]quinoline-9,10(4H)-dione] | 0.05 to 5 mM | 0.05 to 5 mM | < 0.05 mM | 0.05 to 5 mM | 0.05 to 5 mM | 0.05 to 5 mM | 0.05 to 5 mM | 0.1 to 1 µM | – | – | – | – | – | – | –
N#Cc1ccc2c(c1)c(=O)c1c(n2-c2ccc(F)cc2)-c2cccn2C1=O [Compound 199a, 4-(4-Fluorophenyl)-9,10-dioxo-4,10-dihydro-9H-pyrrolizino[1,2-b]quinoline-7-carbonitrile] | < 0.05 mM | 0.05 to 5 mM | 0.05 to 5 mM | 0.05 to 5 mM | 0.05 to 5 mM | 0.05 to 5 mM | 0.05 to 5 mM | 1 to 10 µM | – | – | – | – | – | – | –
CC(C)Oc1c2c(nc3cc(N4CCNCC4)c(F)cc13)-c1cccn1C2=O [Compound 331b, 7-fluoro-9-isopropoxy-6-(piperazin-1-yl)-10H-pyrrolizino[1,2-b]quinolin-10-one] | 0.05 to 5 mM | 0.05 to 5 mM | 0.05 to 5 mM | < 0.05 mM | 0.05 to 5 mM | 0.05 to 5 mM | 0.05 to 5 mM | 1 to 10 µM | – | – | – | – | – | – | –
O=C1c2c(n(Cc3cccc(Cl)c3)c3cc(F)ccc3c2=O)-c2cccn21 [Compound 497a, 4-(3-Chlorobenzyl)-6-fluoro-9H-pyrrolizino[1,2-b]quinoline-9,10(4H)-dione] | 0.05 to 5 mM | 0.05 to 5 mM | 0.05 to 5 mM | 0.05 to 5 mM | 0.05 to 5 mM | 0.05 to 5 mM | < 0.05 mM | 0.1 to 1 µM | – | – | – | – | – | – | –
O=C1c2c(n(Cc3ccc(F)cc3)c3c(F)cccc3c2=O)-c2cccn21 [Compound 452a, 5-Fluoro-4-(4-fluorobenzyl)-9H-pyrrolizino[1,2-b]quinoline-9,10(4H)-dione] | 0.05 to 5 mM | 0.05 to 5 mM | < 0.05 mM | 0.05 to 5 mM | 0.05 to 5 mM | 0.05 to 5 mM | 0.05 to 5 mM | 1 to 10 µM | – | – | – | – | – | – | –
O=C1c2c(n(-c3ccc(Cl)cc3)c3ccc(OC(F)(F)F)cc3c2=O)-c2cccn21 [Compound 300a, 4-(4-Chlorophenyl)-7-(trifluoromethoxy)-9H-pyrrolizino[1,2-b]quinoline-9,10(4H)-dione] | 5 to 20 mM | 0.05 to 5 mM | 0.05 to 5 mM | 0.05 to 5 mM | 0.05 to 5 mM | 0.05 to 5 mM | 0.05 to 5 mM | 0.1 to 1 µM | – | – | – | – | – | – | –
O=C1c2c(nc3c(F)cccc3c2OCc2ccc(F)cc2)-c2cccn21 [Compound 452b, 5-fluoro-9-((4-fluorobenzyl)oxy)-10H-pyrrolizino[1,2-b]quinolin-10-one] | 0.05 to 5 mM | 0.05 to 5 mM | 0.05 to 5 mM | 0.05 to 5 mM | 0.05 to 5 mM | 0.05 to 5 mM | 0.05 to 5 mM | 1 to 10 µM | – | – | – | – | – | – | –
Cc1cc(C)c2c(O)c3c(nc2c1)C(=O)n1cccc1-3 [Compound 782b, 11-hydroxy-8,10-dimethyl-5H-pyrrolizino[2,1-b]quinolin-5-one] | – | – | – | – | – | – | – | 1 to 10 µM | 0.05 to 5 mM | 0.05 to 5 mM | 0.05 to 5 mM | 0.05 to 5 mM | 0.05 to 5 mM | 0.05 to 5 mM | 0.05 to 5 mM
O=C1c2nc3ccccc3c(OCCN3CCCCC3)c2-c2cccn21 [Compound 784b, 11-(2-(piperidin-1-yl)ethoxy)-5H-pyrrolizino[2,1-b]quinolin-5-one] | – | – | – | – | – | – | – | 1 to 10 µM | 0.05 to 5 mM | 0.05 to 5 mM | 0.05 to 5 mM | 0.05 to 5 mM | 0.05 to 5 mM | 0.05 to 5 mM | 0.05 to 5 mM
O=C(Oc1c2c(nc3ccc(F)cc13)-c1cccn1C2=O)c1ccco1 [Compound 150b, 7-fluoro-10-oxo-10H-pyrrolizino[1,2-b]quinolin-9-yl furan-2-carboxylate] | 0.05 to 5 mM | 0.05 to 5 mM | < 0.05 mM | 0.05 to 5 mM | 0.05 to 5 mM | 0.05 to 5 mM | 0.05 to 5 mM | 1 to 10 µM | – | – | – | – | – | – | –
